# Data published in US20230172203A1, “PLANT METABOLISM PROMOTING COMPOSITIONS AND METHODS OF USE” (Panoptic Ag Solutions LLC, priority 2021, published 2023).
# Test system: Mustard plants
# Assay: 2021 Greenhouse Mustard Trial (soil application)
# Format: in vivo
# Method: The base formulation used in greenhouse trials was an aqueous solution of L-theanine (20% by weight). The base formulation was further diluted with water as detailed for each trial. Mustard seeds (n=28/treatment) were planted in commercial potting soil in 1-gallon pots. Approximately 14 days after seedling emergence, an aqueous L-theanine solution was mixed into water at a rate of 0.2 mL per 1000 mL water. The resulting solution was applied to the soil of the pots at a rate of 50 mL per plant. Plants were grown for an additional 14 days then harvested.
# [1] = 0.2 mL per 1000 mL water, 50 mL per plant, harvested 14 days later
smiles,measurement,setting,value
CCNC(=O)CC[C@H](N)C(=O)O [L-theanine],Plant Biomass,[1],22.19 a g
same,Root Length,[1],545.5 a cm
same,Root Tips (count),[1],3178.7 a count
same,increase in plant biomass,above the untreated check,2.8 g
same,"increase in plant biomass, percent",above the untreated check,14.5%
same,increase in root length,above the untreated check,120.9 cm
same,"increase in root length, percent",above the untreated check,28.5%
same,increase in root tips,above the untreated check,887
same,"increase in root tips, percent",above the untreated check,38.7%
